Literature values in patent US20050065087A1, “Pharmaceutical compositions and methods comprising combinations of 2-alkylidene-19-nor-vitamin D derivatives and a bone morphogenetic protein” (Pfizer Inc., priority 2003, published 2005).

Key:
[1] = tested on: male weanling rats on vitamin D-deficient diet; settings: for bone calcium mobilization (in words): chronic 7 days, 130 and 260 pmol/day
[2] = tested on: male weanling rats on vitamin D-deficient diet; settings: chronic 7 days, 130 and/or 260 pmol/day as tested
HL-60 cells = settings: method of Ostrem et al.

Structure (SMILES)	serum calcium value (text sentence) ([1]; 'twice the dose ... at the 130 pmol dose' as printed, 7 days) [mg/100 ml]	intestinal calcium transport (in words) [2]	bone calcium mobilization (in words) [1]	inducing differentiation of HL-60 cells to the monocyte (in words) (HL-60 cells)	bone calcium mobilization activity relative to the native hormone, 'possible' upper estimate ([1]; 130 pmol/day, chronic mode 7 days)	bone calcium mobilization activity relative to 1,25-(OH)2D3 (native hormone) ([1]; chronic mode 7 days, estimate in the text)
C=C1/C(=C\C=C2/CCC[C@]3(C)[C@@H]([C@H](C)CCCC(C)(C)O)CC[C@@H]23)C[C@@H](O)C[C@@H]1O [1,25-(OH)2D3, 1,25-dihydroxyvitamin D3, reference compound]	13.8	expected elevation	–	–	–	–
C=C1[C@H](O)CC(=C/C=C2\CCC[C@]3(C)[C@@H]([C@H](C)CCCC(C)(C)O)CC[C@@H]23)C[C@H]1O [2-Methylene-19-Nor-1,25-(OH)2D3, 1α,25-dihydroxy-2-methylene-19-nor-vitamin D3]	–	no intestinal calcium transport activity	extremely strong bone calcium mobilization	activity similar to 1,25-(OH)2D3	–	–
C=C1[C@H](O)CC(=C/C=C2\CCC[C@]3(C)[C@@H]([C@@H](C)CCCC(C)(C)O)CC[C@@H]23)C[C@H]1O [2-Methylene-19-Nor-20S-1,25-(OH)2D3, (20S)-1α,25-dihydroxy-2-methylene-19-nor-vitamin D3]	–	no significant change	most potent compound tested	extremely potent	100-1,000 times	at least 10 times
